In ChEMBL document CHEMBL1156621, “Synthesis and cellular effects of cycloterpenals: cyclohexadienal-based activators of neurite outgrowth” (2008):
≈ marks a conversion by molar mass, not a printed value.

How the values were obtained:
Format in all cases: functional
Bacillus subtilis = test: Antibacterial activity against Bacillus subtilis after 16 hrs
Escherichia coli = test: Antibacterial activity against Escherichia coli after 16 hrs
Saccharomyces cerevisiae = test: Antifungal activity against Saccharomyces cerevisiae after 16 hrs

MIC (Bacillus subtilis) [µg/mL]	MIC (Escherichia coli) [µg/mL]	MIC (Saccharomyces cerevisiae) [µg/mL]	Compound
> 100	> 100	> 100	CCCCC[C@H]1C(C)=CC=C(C=O)[C@H]1c1ccc(N(C)C)cc1
> 100	> 100	> 100	CC(C)=CCCC1=CC=C(C=O)C(c2ccccc2)C1 (centres undefined)
> 100	> 100	> 100	O=CC1=CC=C(c2ccc3ccccc3c2)CC1c1ccc([N+](=O)[O-])cc1 (centres undefined)
> 100	> 100	> 100	CC1=C(/C=C/C(C)=C/C=C/C2=CC=C(C=O)C(c3ccc([N+](=O)[O-])cc3)C2)C(C)(C)CCC1 (centres undefined)
> 100	> 100	> 100	CC1CC(c2ccc(-c3ccccc3)cc2)=CC=C1C=O (centres undefined)
> 100	> 100	> 100	CC(C)=CCC/C(C)=C/CCC1=CC=C(C=O)C(C)(CC/C=C(\C)CCC=C(C)C)C1 (centres undefined)
> 100	> 100	> 100	CC1=C(/C=C/C2=CC=C(C=O)C(C)(/C=C/C3=C(C)CCCC3(C)C)C2)C(C)(C)CCC1 (centres undefined)
> 100	> 100	> 100	CC1=CC=C(C=O)C(c2ccc([N+](=O)[O-])cc2)C1 (centres undefined)
> 100	> 100	> 100	CC1(c2ccc3ccccc3c2)CC(c2ccc3ccccc3c2)=CC=C1C=O (centres undefined)
> 100	> 100	> 100	CC1(c2ccc(-c3ccccc3)cc2)CC(c2ccc(-c3ccccc3)cc2)=CC=C1C=O (centres undefined)
10 (≈ 28.1 µM)	> 100	> 100	CC1(c2cccs2)CC(c2ccc(-c3ccccc3)cc2)=CC=C1C=O (centres undefined)
> 100	> 100	> 100	CC1=C(/C=C/C2=CC=C(C=O)C(c3ccc(N(C)C)cc3)C2)C(C)(C)CCC1 (centres undefined)
10 (≈ 32.1 µM)	> 100	> 100	CC(C)=CC[C@H]1C(C)=CC=C(C=O)[C@H]1c1ccc([N+](=O)[O-])cc1
> 100	> 100	> 100	CC(C)=CCCC1=CC=C(C=O)C(C)(CCC=C(C)C)C1 (centres undefined)
> 100	> 100	> 100	CC1(c2ccc(Cl)s2)CC(c2ccc(Cl)s2)=CC=C1C=O (centres undefined)
> 100	> 100	> 100	CC(C)=CCC1CC(C=O)=CC=C1C (centres undefined)
> 100	> 100	> 100	CC(C)=CCCC1=CC=C(C=O)C(C)(c2ccc(C)o2)C1 (centres undefined)
> 100	> 100	> 100	CC1(c2cccs2)CC(c2cccs2)=CC=C1C=O (centres undefined)
> 100	> 100	> 100	CC(C)=CCCC1=CC=C(C=O)C(c2ccc(N(C)C)cc2)C1 (centres undefined)

More lines, now with the values behind:

Compound	MIC (Bacillus subtilis) [µg/mL]	MIC (Escherichia coli) [µg/mL]	MIC (Saccharomyces cerevisiae) [µg/mL]
CC(C)=CC[C@H]1C(C)=CC=C(C=O)[C@H]1c1ccc(N(C)C)cc1	> 100	> 100	> 100
CC(C)=CC[C@@H]1C(C)=CC=C(C=O)[C@H]1c1ccc(N(C)C)cc1	> 100	> 100	> 100
CC(C)=CCCc1ccc(C=O)c(-c2ccccc2)c1	> 100	> 100	> 100
O=CC1=CC=C(c2ccc3c(c2)Cc2ccccc2-3)CC1c1ccccc1 (centres undefined)	> 100	> 100	> 100
CC1=C(/C=C/C2=CC=C(C=O)C(C)C2)C(C)(C)CCC1 (centres undefined)	> 100	> 100	> 100
O=CC1=CC=C(c2ccccc2)CC1c1ccccc1 (centres undefined)	> 100	> 100	> 100
CC1CC(c2ccc3ccccc3c2)=CC=C1C=O (centres undefined)	> 100	> 100	> 100
CC(C)=CCC/C(C)=C/C[C@H]1C(C)=CC=C(C=O)[C@H]1c1ccccc1	> 100	> 100	> 100
Cc1ccc(-c2ccc(C=O)c(-c3ccc([N+](=O)[O-])cc3)c2)o1	> 100	> 100	> 100
CC(C)=CCCC1=CC=C(C=O)C(C)C1 (centres undefined)	> 100	> 100	> 100
CC(C)=CCC/C(C)=C/CCC1=CC=C(C=O)C(c2ccccc2)C1 (centres undefined)	> 100	> 100	> 100
CC(C)=CCCc1ccc(C=O)c(-c2ccc([N+](=O)[O-])cc2)c1	> 100	> 100	> 100
CC1=C(/C=C/C2=CC=C(C=O)C(c3ccc([N+](=O)[O-])cc3)C2)C(C)(C)CCC1 (centres undefined)	> 100	> 100	> 100
CC1(c2ccc3c(c2)Cc2ccccc2-3)CC(c2ccc3c(c2)Cc2ccccc2-3)=CC=C1C=O (centres undefined)	> 100	> 100	> 100
Cc1ccc(C2=CC=C(C=O)C(c3ccccc3)C2)o1 (centres undefined)	> 100	> 100	> 100
CC1=C(/C=C/C2=CC=C(C=O)C(c3ccccc3)C2)C(C)(C)CCC1 (centres undefined)	> 100	> 100	> 100
CC1CC(c2ccc3c(c2)Cc2ccccc2-3)=CC=C1C=O (centres undefined)	> 100	> 100	> 100

Compound	MIC (Bacillus subtilis) [µg/mL]	MIC (Escherichia coli) [µg/mL]	MIC (Saccharomyces cerevisiae) [µg/mL]
CC1=C(/C=C/C(C)=C/C=C/C2=CC=C(C=O)CC2)C(C)(C)CCC1	> 100	> 100	> 100
O=CC1=CC=C(c2cccs2)CC1c1ccc([N+](=O)[O-])cc1 (centres undefined)	> 100	> 100	> 100
CC(C)=CCC/C(C)=C/C[C@H]1C(C)=CC=C(C=O)[C@H]1c1ccc(N(C)C)cc1	> 100	> 100	> 100
Cc1ccc(C2=CC=C(C=O)C(C)(c3ccc(C)o3)C2)o1 (centres undefined)	> 100	> 100	> 100
CC(C)=CC[C@H]1C(C)=CC=C(C=O)[C@H]1c1ccccc1	> 100	> 100	> 100
CN(C)c1ccc(C2CC(c3ccc4c(c3)Cc3ccccc3-4)=CC=C2C=O)cc1 (centres undefined)	> 100	> 100	> 100
Cc1ccc(C2=CC=C(C=O)C(c3ccc([N+](=O)[O-])cc3)C2)o1 (centres undefined)	> 100	> 100	> 100
CC1=CC=C(C=O)C(c2ccccc2)C1 (centres undefined)	> 100	> 100	> 100
CC1=CC=C(C=O)C(C)(C)C1	> 100	> 100	> 100
CC1=CC=C(C=O)C(C)(c2ccc(-c3ccccc3)cc2)C1 (centres undefined)	> 100	> 100	> 100
CC(C)=CCCc1ccc(C=O)c(-c2ccc(N(C)C)cc2)c1	> 100	> 100	> 100
CC1C(c2cccs2)=CC=C(C=O)C1c1ccccc1 (centres undefined)	> 100	> 100	> 100
CC1=C(/C=C/C(C)=C/C=C/C2=CC=C(C=O)C(c3ccccc3)C2)C(C)(C)CCC1 (centres undefined)	> 100	> 100	> 100
Cc1ccc(C=O)c(-c2ccccc2)c1	> 100	> 100	> 100
CN(C)c1ccc(-c2cc(-c3ccc4ccccc4c3)ccc2C=O)cc1	> 100	> 100	> 100
O=CC1=CC=C(c2ccc(-c3ccccc3)cc2)CC1c1ccccc1 (centres undefined)	> 100	> 100	> 100
Cc1ccc(C=O)c(-c2ccc([N+](=O)[O-])cc2)c1	> 100	> 100	> 100
